pIC50: −log10 of the molar value. Read-outs that look alike come from different tables or passages of the source.

This note sets out measurements from US20250179059A1 (The Regents of the University of California, priority 2021, published 2025).

For assay [1], the target named is T1, human BRD4 bromodomain II (Homo sapiens, UniProt O60885).
T1 construct: human BRD4 bromodomain II [based on Genbank NM_058243, residues 349-460]; host or cells: E. coli
Description: Bromodomain binding assay (AlphaScreen), BRD4 BDII. The gist of the method: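 First, His6-tagged BRD4 bromodomain (BDI residues 44-170 or BDII residues 349-460) is incubated with compound for 30 min at room temperature. Next the biotinylated H4 peptide is added for 30 min, then donor and acceptor beads, with 60 min in the dark before AlphaScreen reading and IC50 fitting.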

For assay [2], the system named is human SKM-1 acute myeloid leukemia cells. Description: SKM-1 antiproliferation cell-based assay (ATPlite). Particulars: Homo sapiens. The gist of the method:
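Log-phase cells in RPMI 1640/15% FBS were seeded at 34722 cells/mL and exposed for 4 days to nine-concentration DMSO serial dilutions in triplicate. Viability was read as ATP luminescence (ATPlite 1step), and IC50 values came from variable-slope non-linear regression.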
In general terms: ATP-based viability assays read luminescence as a measure of living cells.

[3] abbreviates: AlphaScreen assay, Table C2, read-out: BRD4 BDII IC50.
The mark [4] stands for this setting: SKM-1, 96 h, SKM-1 antiproliferation assay, 4 days, Table C2.
The mark [5] stands for this setting: BRD4 BDII AlphaScreen assay, read-out: BRD4 BD2 IC50.
[6] abbreviates: SKM-1, SKM-1 antiproliferation assay.

What is called pIC50 is −log10 of the IC50, conventionally taken in molar units. The GI50 is the concentration that inhibits growth by half. A high value points to lower sensitivity of the cells. On to `CC(C)N1CCC12CCN(c1cc(-c3cc(F)cc(-c4ccc(-n5ccn(C)c5=O)c(Cl)c4)c3O)ccn1)C2` (stereo not shown) [Example 748, 1-(3-chloro-5′-fluoro-2′-hydroxy-3′-(2-(1-isopropyl-1,6-diazaspiro[3.4]octan-6-yl)pyridin-4-yl)-[1,1′-biphenyl]-4-yl)-3-methyl-1H-imidazol-2(3H)-one], for which, in assay [1] (setting [3]), the pIC50 is 9.00 to 11.00. Also, in assay [2] (setting [4]), the GI50 was in the range of 0.3 to 30 nM.
For `C[C@@H]1CN(c2cc(-c3cc(F)cc(-c4ccc(-n5ccn(C)c5=O)c(Cl)c4)c3O)cc3[nH]c(=O)[nH]c23)CCN1` [Example 603, (R)-6-(3′-chloro-5-fluoro-2-hydroxy-4′-(3-methyl-2-oxo-2,3-dihydro-1H-imidazol-1-yl)-[1,1′-biphenyl]-3-yl)-4-(3-methylpiperazin-1-yl)-1H-benzo[d]imidazol-2(3H)-one], in that order: 9.00 to 11.00 and 30 to 300 nM.
For `Cn1ccn(-c2ccc(-c3cc(F)cc(-c4ccnc(N5CC6CC6(O)C5)c4)c3O)cc2Cl)c1=O` (stereo not shown) [Example 770, 1-(3-chloro-5′-fluoro-2′-hydroxy-3′-(2-(1-hydroxy-3-azabicylco[3.1.0]hexan-3-yl)pyridin-4-yl)-[1,1′-biphenyl]-4-yl)-3-methyl-1H-imidazol-2(3H)-one], in that order: 8.00 to 9.00 and 30 to 300 nM.
For `CC(=O)Nc1ccc(-c2cccc(-c3ccnc(N4CC5(CNC5)C4)c3)c2O)cc1F` [Example 270, N-(3′-(2-(2,6-diazaspiro[3.3]heptan-2-yl)pyridin-4-yl)-3-fluoro-2′-hydroxy-[1,1′-biphenyl]-4-yl)acetamide], in that order: 8.00 to 9.00 and 300 to 3000 nM.
In the case of `CC(C)(C)N1CCN(c2cccc(-c3nccc(-c4ccc(-n5cc[nH]c5=O)c(Cl)c4)c3O)c2)CC1` [Example 1038, 1-(4-(2-(3-(4-(tert-butyl)piperazin-1-yl)phenyl)-3-hydroxypyridin-4-yl)-2-chlorophenyl)-1H-imidazol-2(3H)-one], the pIC50 in assay [1] (setting [5]) was 7.00 to 8.00. In assay [2] (setting [6]), this compound came in with a 50% growth inhibitory concentration (GI50) of 30 to 300 nM.
As to `CN1CCN(c2ccc(-c3cc(C#N)cc(-c4ccnc(N5CCNCC5)c4)c3O)cc2Cl)C1=O` [Example 314, 3′-chloro-6-hydroxy-4′-(3-methyl-2-oxoimidazolidin-1-yl)-5-(2-(piperazin-1-yl)pyridin-4-yl)-[1,1′-biphenyl]-3-carbonitrile], the pIC50 in assay [1] (setting [3]) was less than 7.00. In assay [2] (setting [4]), this compound registered a GI50 of no less than 3000 nM.
For `CN1CCN(c2ccc(-c3cccc(-c4cncc(N5CCNCC5)c4)c3O)cc2F)C1=O` [Example 292, 1-(3-fluoro-2′-hydroxy-3′-(5-(piperazin-1-yl)pyridin-3-yl)-[1,1′-biphenyl]-4-yl)-3-methylimidazolidin-2-one], the pIC50 in assay [1] (setting [3]) is 8.00 to 9.00. This compound also yielded a 50% growth inhibitory concentration (GI50) in assay [2] (setting [4]) of 30 to 300 nM.
For `Cc1cc(-c2ccc(-n3ccn(C)c3=O)c(Cl)c2)c(O)c(-c2ccnc(N3CC(F)(F)[C@](C)(O)C3)c2)n1` [Example 1037, (R)-1-(2-chloro-4-(2′-(3,3-difluoro-4-hydroxy-4-methylpyrrolidin-1-yl)-3-hydroxy-6-methyl-[2,4′-bipyridin]-4-yl)phenyl)-3-methyl-1,3-dihydro-2H-imidazol-2-one], the negative-log IC50 (pIC50) in assay [1] (setting [5]) is 8.00 to 9.00. In assay [2] (setting [6]), this compound showed a GI50 of 0.3 to 30 nM.
Regarding `CN1CCN(c2ccc(-c3cc(F)cc(-c4cnc(Cl)c(N5CCNCC5)c4)c3O)cc2Cl)C1=O` [Example 407, 1-(3-chloro-3′-(6-chloro-5-(piperazin-1-yl)pyridin-3-yl)-5′-fluoro-2′-hydroxy-[1,1′-biphenyl]-4-yl)-3-methylimidazolidin-2-one], the negative logarithm of the IC50 (pIC50) in assay [1] (setting [3]) is 8.00 to 9.00. In assay [2] (setting [4]), this compound yielded a GI50 of 0.3 to 30 nM.
For `Cn1ccn(-c2ccc(-c3cc(F)cc(-c4ccnc(N5CCN6C(=O)OCCC6C5)c4)c3O)cc2Cl)c1=O` (stereo not shown) [Example 675, 2-(4-(3′-chloro-5-fluoro-2-hydroxy-4′-(3-methyl-2-oxo-2,3-dihydro-1H-imidazol-1-yl)-[1,1′-biphenyl]-3-yl)pyridin-2-yl)hexahydropyrazino[1,2-c][1,3]oxazin-6(2H)-one], in that order: 9.00 to 11.00 and 30 to 300 nM.
On to `Cn1ccn(-c2ccc(-c3cc(F)cc(-c4cc(N5CCNCC5)c5nc[nH]c5c4)c3O)cc2Cl)c1=O` [Example 504, 1-(3-chloro-5′-fluoro-2′-hydroxy-3′-(4-(piperazin-1-yl)-1H-benzo[d]imidazol-6-yl)-[1,1′-biphenyl]-4-yl)-3-methyl-1H-imidazol-2(3H)-one], for which, in assay [1] (setting [3]), the pIC50 is 8.00 to 9.00. Also, the GI50 in assay [2] (setting [4]) is 0.3 to 30 nM.
For `CN1CCN(c2ccc(-c3cc(F)cc(-c4ccnc(N5CC6(CNC6)C5)c4)c3O)cc2Cl)C1=O` [Example 352, 1-(3′-(2-(2,6-diazaspiro[3.3]heptan-2-yl)pyridin-4-yl)-3-chloro-5′-fluoro-2′-hydroxy-[1,1′-biphenyl]-4-yl)-3-methylimidazolidin-2-one], in that order: 7.00 to 8.00 and 300 to 3000 nM.
For `Cn1ccn(-c2ccc(-c3cc(F)cc(-c4cc(Cl)cc(N5CCN(C(C)(C)C)CC5)c4)c3O)cc2Cl)c1=O` [Example 827, 1-(3″-(4-(tert-butyl)piperazin-1-yl)-3,5″-dichloro-5′-fluoro-2′-hydroxy-[1,1′:3′,1″-terphenyl]-4-yl)-3-methyl-1H-imidazol-2(3H)-one], in that order: 9.00 to 11.00 and 0.3 to 30 nM.
For `Cc1cc(-c2ccnc(N3CC[C@H](N)C3)c2)c(O)c(-c2ccc(N3CCN(C)C3=O)c(Cl)c2)c1` [Example 362, (S)-1-(3′-(2-(3-aminopyrrolidin-1-yl)pyridin-4-yl)-3-chloro-2′-hydroxy-5′-methyl-[1,1′-biphenyl]-4-yl)-3-methylimidazolidin-2-one], in that order: 8.00 to 9.00 and 30 to 300 nM.
With `COc1ncc(-c2cc(F)cc(-c3ccc(-n4ccn(C)c4=O)c(Cl)c3)c2O)cc1N1CCN(C(C)(C)C)CC1` [Example 802, 1-(3′-(5-(4-(tert-butyl)piperazin-1-yl)-6-methoxypyridin-3-yl)-3-chloro-5′-fluoro-2′-hydroxy-[1,1′-biphenyl]-4-yl)-3-methyl-1,3-dihydro-2H-imidazol-2-one], in assay [1] (setting [3]), the negative-log IC50 (pIC50) is 9.00 to 11.00. Also, the GI50 in assay [2] (setting [4]) lay within 0.3 to 30 nM.
Consider `CC(=O)Nc1ccc(-c2cccc(-c3cc(N4CCNCC4)nc4[nH]ccc34)c2O)cc1F` [Example 286, N-(3-fluoro-2′-hydroxy-3′-(6-(piperazin-1-yl)-1H-pyrrolo[2,3-b]pyridin-4-yl)-[1,1′-biphenyl]-4-yl)acetamide], for which the pIC50 in assay [1] (setting [3]) was 7.00 to 8.00. Besides, the concentration for 50% growth inhibition (GI50) in assay [2] (setting [4]) was in the range of 300 to 3000 nM.
For `Cn1ccn(-c2ccc(-c3cc(F)cc(-c4cnc(C(F)F)c(N5CCN(C(C)(C)C)CC5)c4)c3O)cc2Cl)c1=O` [Example 826, 1-(3′-(5-(4-(tert-butyl)piperazin-1-yl)-6-(difluoromethyl)pyridin-3-yl)-3-chloro-5′-fluoro-2′-hydroxy-[1,1′-biphenyl]-4-yl)-3-methyl-1H-imidazol-2(3H)-one], in that order: 9.00 to 11.00 and 0.3 to 30 nM.
For `Cn1ccn(-c2ccc(-c3cc(F)cc(-c4cc(N5CCNCC5)c5cc[nH]c5c4)c3O)cc2Cl)c1=O` [Example 479, 1-(3-chloro-5′-fluoro-2′-hydroxy-3′-(4-(piperazin-1-yl)-1H-indol-6-yl)-[1,1′-biphenyl]-4-yl)-3-methyl-1H-imidazol-2(3H)-one], in that order: 8.00 to 9.00 and 0.3 to 30 nM.
Regarding `CN(C)[C@H]1CCCN(c2cncc(-c3cc(F)cc(-c4ccc(-n5ccn(C)c5=O)c(Cl)c4)c3O)c2)C1` [Example 501, (S)-1-(3-chloro-3′-(5-(3-(dimethylamino)piperidin-1-yl)pyridin-3-yl)-5′-fluoro-2′-hydroxy-[1,1′-biphenyl]-4-yl)-3-methyl-1H-imidazol-2(3H)-one], the pIC50 in assay [1] (setting [3]) was 9.00 to 11.00. The compound also gave a GI50 in assay [2] (setting [4]) of 0.3 to 30 nM.
For `CN1CCN(c2c(Cl)cc(-c3cc(F)cc(-c4ccnc(N5CCNCC5)c4)c3O)cc2C#N)C1=O` [Example 426, 5-chloro-5′-fluoro-2′-hydroxy-4-(3-methyl-2-oxoimidazolidin-1-yl)-3′-(2-(piperazin-1-yl)pyridin-4-yl)-[1,1′-biphenyl]-3-carbonitrile], in that order: less than 7.00 and no less than 3000 nM.
Take `CC(=O)Nc1ccc(-c2cc(F)cc(-c3ccc(F)c(N4CCNCC4)c3)c2O)cc1F` [Example 237, N-(3,4″,5′-trifluoro-2′-hydroxy-3″-(piperazin-1-yl)-[1,1′:3′,1″-terphenyl]-4-yl)acetamide]: the pIC50 in assay [1] (setting [3]) was 9.00 to 11.00. The compound further showed a GI50 in assay [2] (setting [4]) of 30 to 300 nM.
Turning to `CC(=O)NCc1cc(-c2cccc(-c3ccc(N4CCN(C)C4=O)c(Cl)c3)c2O)cc(N2CCNCC2)c1` [Example 327, N-((3″-chloro-2′-hydroxy-4″-(3-methyl-2-oxoimidazolidin-1-yl)-5-(piperazin-1-yl)-[1,1′:3′,1″-terphenyl]-3-yl)methyl)acetamide], the pIC50 in assay [1] (setting [3]) was 8.00 to 9.00. The GI50 in assay [2] (setting [4]) lay in the range of 30 to 300 nM.
For `CC(C)N1C2CCC1CN(c1cccc(-c3cc(F)cc(-c4ccc(-n5ccn(C)c5=O)c(Cl)c4)c3O)c1)C2` [Example 846, 1-(3-chloro-5′-fluoro-2′-hydroxy-338-(8-isopropyl-3,8-diazabicyclo[3.2.1]octan-3-yl)-[1,1′:3′,1″-terphenyl]-4-yl)-3-methyl-1H-imidazol-2(3H)-one], the pIC50 in assay [1] (setting [3]) was 9.00 to 11.00. In assay [2] (setting [4]), this compound showed a GI50 of 0.3 to 30 nM.
